The text below walks through data of patent US10870647B2, “Imidazopyridine derivative, method for preparing same, and pharmaceutical composition containing same as active ingredient for preventing or treating cancer” (DAEGU-GYEONGBUK MEDICAL INNOVATION FOUNDATION, priority 2016, dated 2020).

Holding throughout (assay type): cell-based
Experiment [1] concerns M-NFS-60. Put plainly: Cancer cell proliferation inhibition, CCK-8, 72 hours. The procedure: (§1) MTS assay was performed to evaluate the cancer cell proliferation inhibition (cancer cell apoptosis) effect of the compounds of examples of the present invention. Particularly, the assay was performed using the cancer cell lines GIST-T1, GIST-T1/816, GIST-430, GIST-430/654, GIST-R1, GIST-R3, M-NFS-60, RetParental (Ba/F3), Retwt (Ba/F3), RetV804M (Ba/F3), RET (LC2/ad-CDC6), FYN (MCP-1), FYN (FN), MDA-MB-231, Huh7, K562, T315I(Ba/F3), SK-MEL-28 and A375. Cell culture was performed using a medium suitable for each cell line.
M-NFS-60 cell line was cultured in the complete growth medium prepared by adding 10% FBS, 0.05 mM 2-mercaptoethanol and 62 ng of human M-CSF to RPMI. When the confluence reached 80% in T-75 flask, the cells were collected in a 50 ml tube for seeding, followed by centrifugation at 800 rpm for 5 minutes. The cells were suspended in 10 mL of growth medium. The cell number was counted by using a hematocytometer to determine the necessary cell number and the medium volume for seeding. The cells were seeded in a 96-well plate at the density of 20000 cells/well (200 μL/well), followed by stabilization in a 37° C. CO2 incubator, while the compounds of the present invention were prepared. The compounds of the present invention were serially diluted with DMSO at the ratio of 1/3 with setting the maximum concentration at 1968 nM, which were loaded in a new V-bottom 96-well plate, resulting in the preparation of total 11 concentrations including the DMSO control. The cells that had been placed in the incubator were taken out, to which the compounds of the present invention were added (2 μl/well). The plate treated with the compounds was cultured in a 37° C. CO2 incubator for 72 hours. 72 hours later, the plate treated with the compounds was taken out, to which CCK-8 solution was treated (20 μl/well). After well mixing, the plate was further cultured in a 37° C. CO2 incubator for 2 hours. Then, OD450 was measured by using a microplate reader. To obtain accurate results, the wells displaying bubbles were eliminated from the measurement.

Experiment [2] deals with Huh7. Put plainly: Cancer cell proliferation inhibition, MTS assay, 72 hours. The conditions noted are these: Homo sapiens, Huh-7. As to the method:
as §1
(§2) Other cell lines were seeded in a 96-well plate containing the corresponding medium appropriate for each cell line at the density of 3,000 cells/well, followed by culture in a 5% CO2 and 37° C. incubator for 24 hours. The compounds of examples of the present invention were added to each well at the concentration of from the highest volume of 50 μM to every step of serial dilution. The solvent control, dimethylsulfoxide (DMSO), was treated at the same concentration of 0.05% (v/v) as the volume used for the treatment of the compounds above. Each cell line was cultured for 72 hours. To investigate the cell viability, the MTS and PMS (phenazine methosulfate) mixture provided in CellTiter 96® AQuous Non-Radioactive Cell Proliferation Assay Kit (Promega) was added to each cell culture medium, followed by additional culture at 37° C. for 2 hours. Then, OD450 was measured. Based on OD of the solvent control cells not treated with any compounds of the present invention, the cell proliferation inhibition rate was calculated according to the treatment concentration of each compound. At this time, the concentration of each compound that was able to inhibit cancer cell proliferation up to 50% was determined as IC50 (uM). IC50 of each compound was determined with three data sets and calculated by using Prism softwater (version 6.01, GraphPad).

Experiment [3] relates to MDA-MB-231. Put plainly: Real time cell proliferation, IncuCyte ZOOM, 72 hours. Conditions: Homo sapiens, MDA-MB-231, 72 h.
Experiment [4] concerns A375. Put plainly: Cancer cell proliferation inhibition, CCK-8, 72 hours. The conditions noted are these: Homo sapiens, A-375, 72 h. As to the method: as §1
(§3) In the meantime, MDA-MB-231 and A375 cells were seeded in a 96well plate at the density of 2×10^3/100 μl/well, which stood for a day for attachment. The culture fluid was eliminated. After removing the culture medium, the medium was replaced with the culture medium containing the compounds of the present invention at 3-times serially diluted 9 concentrations (0.0015-10 μM) and the DMSO control, followed by incubation in a 37° C. CO2 incubator for 72 hours. On the other hand, K-562 and Ba/F3-T315I cells were seeded in a 96-well plate at the density of 1×10^4/90 μl/well. The plate containing K-562 cells was added with the culture medium containing the compounds of the present invention at 3-times serially diluted 9 concentrations (0.015-100 μM) and the DMSO control (10 μl/well). The plate containing Ba/F3-T315I cells was added with the culture medium containing the compounds of the present invention at 5-times serially diluted 9 concentrations (0.000256-100 μM) and the DMSO control (10 μl/well). The final concentration was made 0-10 μM and then the cells were cultured in a 37° C. CO2 incubator for 72 hours.
(§4) A375, K-562 and Ba/F3-T315I cells were added with CCK-8 solution at the concentration of 10 μl/well, followed by orbital shaking for 30 seconds. Then, the cells were cultured in a 37° C. CO2 incubator for 2 hours. OD450 was measured by using a microplate reader. The OD value of the well treated with the culture medium and CCK-8 solution alone was subtracted from the OD value measured above, followed by calculation of IC50 using GraphPad Prism 6 software.

In experiment [5] the test system is K562. The experiment is described as above. The conditions noted are these: Homo sapiens, K562, 72 h. As to the method:
as §1, §3, §4

Experiment [6] deals with T1, T315I (Ba/F3) (Homo sapiens, UniProt P00519, T315I, cells depend on it).
T1 construct: fused on or other part: P11274 (Breakpoint cluster region protein)
The description is as above. The conditions noted are these: read-out: T315I (Ba/F3) IC50. The procedure:
as §1, §3, §4

Experiment [7] deals with RET (LC2/ad-CDC6). Put plainly: Cancer cell proliferation inhibition, MTS assay, 72 hours. The conditions noted are these: 72 h. The procedure:
as §1, §2

A value given as a limit tells only on which side of the number the result lay.

In general, IC50 refers to the point on the concentration scale where inhibition reaches its midpoint. Higher therefore signals weaker potency. Take `Cc1ccc(C(=O)Nc2ccc3cccnc3c2)cc1C#Cc1cnc2c(Nc3cnn(C)c3)cccn12` [Example 36, 4-methyl-3-((8-((1-methyl-1H-pyrazol-4-yl)amino)imidazo[1,2-a]pyridin-3-yl)ethynyl)-N-(quinolin-7-yl)benzamide]: the IC50 in experiment [1] was 7.76 nM; in experiment [2] it was 145 nM; in experiment [3] it was over 10000 nM; in experiment [4], over 10000 nM; in experiment [5] it was 6 nM. In experiment [6], the GI50 is over 10000 nM.

For `COCCn1cc(Nc2cccn3c(C#Cc4cc(C(=O)Nc5ccc(CN6CCN(C)[C@H](C)C6)c(C(F)(F)F)c5)ccc4C)cnc23)cn1` [Example 40, (R)—N-(4-((3,4-dimethylpiperazin-1-yl)methyl)-3-(trifluoromethyl)phenyl)-3-((8-((1-(2-methoxyethyl)-1H-pyrazol-4-yl)amino)imidazo[1,2-a]pyridin-3-yl)ethynyl)-4-methylbenzamide], the IC50 turned out to be 101 nM in experiment [2]; 10 nM in experiment [7]; 230 nM in experiment [3]; 97 nM in experiment [4]; 8 nM in experiment [5]. In addition, in experiment [6], the GI50 was determined as 33.5 nM.

With `COCCCn1cc(Nc2cccn3c(C#Cc4cc(C(=O)Nc5ccc(CN6CCN(C)[C@H](C)C6)c(C(F)(F)F)c5)ccc4C)cnc23)cn1` [Example 42, (R)—N-(4-((3,4-dimethylpiperazin-1-yl)methyl)-3-(trifluoromethyl)phenyl)-3-((8-((1-(3-methoxypropyl)-1H-pyrazol-4-yl)amino)imidazo[1,2-a]pyridin-3-yl)ethynyl)-4-methylbenzamide], the IC50 was 100 nM in experiment [2]; over 10 nM in experiment [7]; 320 nM in experiment [3]; 163 nM in experiment [4]; 8 nM in experiment [5]. In experiment [6], the GI50 turned out to be 122 nM.

For the compound `COCCCn1cc(Nc2cccn3c(C#Cc4cc(C(=O)Nc5ccc(CN6CCC(N(C)C)C6)c(C(F)(F)F)c5)ccc4C)cnc23)cn1` (stereo not shown) [Example 43, N-(4-((3-(dimethylamino)pyrrolidin-1-yl)methyl)-3-(trifluoromethyl)phenyl)-3-((8-((1-(3-methoxypropyl)-1H-pyrazol-4-yl)amino)imidazo[1,2-a]pyridin-3-yl)ethynyl)-4-methylbenzamide], the IC50 in experiment [2] is 98 nM; in experiment [7], over 10 nM; in experiment [3] it was 190 nM; in experiment [4] it was 341 nM; in experiment [5], 16 nM. The GI50 in experiment [6] was determined as 59.7 nM.

As for `Cc1ccc(C(=O)Nc2ccc(CN3CCN(C)[C@@H](C)C3)c(C(F)(F)F)c2)cc1C#Cc1cnc2c(Nc3cnn(C)c3)cccn12` [Example 47, (S)—N-(4-((3,4-dimethylpiperazin-1-yl)methyl)-3-(trifluoromethyl)phenyl)-4-methyl-3-((8-((1-methyl-1H-pyrazol-4-yl)amino)imidazo[1,2-a]pyridin-3-yl)ethynyl)benzamide], the 50% inhibitory concentration (IC50) in experiment [1] is 43.8 nM; in experiment [7], over 10 nM; in experiment [3], 168 nM; in experiment [4], 152 nM; in experiment [5] it was under 1 nM. The GI50 in experiment [6] was 25 nM.

In the case of `Cc1ccc(C(=O)Nc2ccc(Cl)c(C(F)(F)F)c2)cc1C#Cc1cnc2c(Nc3cnn(C4CCNCC4)c3)cccn12` [Example 63, N-(4-chloro-3-(trifluoromethyl)phenyl)-4-methyl-3-((8-((1-(piperidin-4-yl)-1H-pyrazol-4-yl)amino)imidazo[1,2-a]pyridin-3-yl)ethynyl)benzamide], the IC50 was 71 nM in experiment [1]; over 10 nM in experiment [7]; 1410 nM in experiment [3]; 1330 nM in experiment [4]; under 1 nM in experiment [5]. Further, the GI50 in experiment [6] is 374 nM.

Regarding `COCCCn1cc(Nc2cccn3c(C#Cc4cc(C(=O)Nc5ccc(CN6CCN(C)CC6)c(C(F)(F)F)c5)ccc4C)cnc23)cn1` [Example 65], the IC50 was 33 nM in experiment [2]; over 10 nM in experiment [7]; 219 nM in experiment [3]; 221 nM in experiment [4]; under 1.5 nM in experiment [5].

For the compound `Cc1ccc(C(=O)Nc2ccc(CN3CCN(C)CC3)c(C(F)(F)F)c2)cc1C#Cc1cnc2c(Nc3cc4n(n3)CCNC4)cccn12` [Example 66, 4-methyl-N-(4-((4-methylpiperazin-1-yl)methyl)-3-(trifluoromethyl)phenyl)-3-((8-((4,5,6,7-tetrahydropyrazolo[1,5-a]pyrazin-2-yl)amino)imidazo[1,2-a]pyridin-3-yl)ethynyl)benzamide], the figures for the IC50 in experiment [1], in experiment [3] and in experiment [5] were 62.7 nM, 386 nM and under 1.5 nM, respectively. For the same compound, the GI50 in experiment [6] is 170 nM.

With `Cc1ccc(C(=O)Nc2cccc(C(F)(F)F)c2)cc1C#Cc1cnc2c(Nc3cc4n(n3)CCNC4)cccn12` [Example 67, 4-methyl-3-((8-((4,5,6,7-tetrahydropyrazolo[1,5-a]pyrazin-2-yl)amino)imidazo[1,2-a]pyridin-3-yl)ethynyl)-N-(3-(trifluoromethyl)phenyl)benzamide], the IC50 in experiment [1] is 19.4 nM; in experiment [2], 919 nM; in experiment [3], 429 nM; in experiment [5], under 1.5 nM. Besides, the GI50 in experiment [6] was determined as 40.1 nM.

With `COCCn1cc(Nc2cccn3c(C#Cc4cc(C(=O)Nc5cccc(C(F)(F)F)c5)ccc4C)cnc23)cn1` [Example 70], the IC50 in experiment [1] was 12.3 nM; in experiment [2], 848 nM; in experiment [3] it was 1160 nM; in experiment [5], under 1.5 nM. Besides, the GI50 in experiment [6] was 26.1 nM.

Take `Cc1ccc(C(=O)Nc2cccc(C(F)(F)F)c2)cc1C#Cc1cnc2c(Nc3cnn(CCN(C)C)c3)cccn12` [Example 74]: the results for the IC50 in experiment [1], in experiment [3] and in experiment [5] were 21.4 nM, 1120 nM and under 1.5 nM, respectively. Besides, in experiment [6], the GI50 was 93.1 nM.

For `Cc1ccc(NC(=O)Nc2cc(C(C)(C)C(F)(F)F)on2)cc1C#Cc1cnc2c(Nc3cnn(C(C)C)c3)cccn12` [Example 85, 1-(3-((8-((1-isopropyl-1H-pyrazol-4-yl)amino)imidazo[1,2-a]pyridin-3-yl)ethynyl)-4-methylphenyl)-3-(5-(1,1,1-trifluoro-2-methylpropan-2-yl)isoxazol-3-yl)urea], the IC50 in experiment [7] is over 10 nM; in experiment [3] it was over 10000 nM; in experiment [4], over 10000 nM; in experiment [5], 290 nM. Further, in experiment [6], the GI50 is 3080 nM.
